Test results reported in US10519134B2, “Pyrazole compounds and methods of making and using same” (Lundbeck La Jolla Research Center, Inc., priority 2015, dated 2019).

Legend:
[1] = target: T1, FAAH (Mus musculus, UniProt O08914); experiment: In vitro competitive activity-based protein profiling (mouse), FAAH gel band; type: biochemical; details: for IC50: mouse; for inhibition at 1 µM: read-out: FAAH % inh. 1 μM
T1 construct: Proteomes (mouse brain membrane fraction or cell lysates); from tissue; host or cells: mouse brain membrane fraction (or cell lysates)
T1 sequence (O08914 1-579): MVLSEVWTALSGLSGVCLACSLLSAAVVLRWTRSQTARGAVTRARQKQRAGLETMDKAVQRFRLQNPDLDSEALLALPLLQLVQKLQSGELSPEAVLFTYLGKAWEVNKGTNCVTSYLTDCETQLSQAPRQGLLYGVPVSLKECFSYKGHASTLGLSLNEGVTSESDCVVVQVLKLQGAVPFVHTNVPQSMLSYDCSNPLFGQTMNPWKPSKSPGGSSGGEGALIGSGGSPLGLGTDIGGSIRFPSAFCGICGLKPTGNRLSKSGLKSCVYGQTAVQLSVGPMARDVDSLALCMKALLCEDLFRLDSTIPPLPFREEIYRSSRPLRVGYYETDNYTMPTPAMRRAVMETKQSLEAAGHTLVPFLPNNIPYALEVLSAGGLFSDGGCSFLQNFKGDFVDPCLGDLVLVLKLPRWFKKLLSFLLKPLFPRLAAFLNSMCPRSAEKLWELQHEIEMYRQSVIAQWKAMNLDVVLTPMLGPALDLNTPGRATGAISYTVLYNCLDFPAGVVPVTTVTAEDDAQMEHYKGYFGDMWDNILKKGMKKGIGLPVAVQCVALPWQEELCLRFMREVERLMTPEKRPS
In short: (§1)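 Gel-based competitive ABPP: proteome 1.0 mg/mL, inhibitor 30 min 37 °C, then FP-Rh or HT-01 probe (stock 50 μM) 30 min 37 °C; SDS quench, SDS-PAGE, in-gel fluorescence of the enzyme band quantified.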

[2] = target: T2, MAGL (Mus musculus, UniProt O35678); experiment: Mouse brain proteomes from inhibitor treated mice (oral gavage, sacrificed 4 h after administration); type: in vivo; details: read-out: MAGL % inh. 5 mg/kg
T2 construct: Proteomes (mouse brain membrane fraction or cell lysates); from tissue; host or cells: mouse brain membrane fraction (or cell lysates)
T2 sequence (O35678 1-303): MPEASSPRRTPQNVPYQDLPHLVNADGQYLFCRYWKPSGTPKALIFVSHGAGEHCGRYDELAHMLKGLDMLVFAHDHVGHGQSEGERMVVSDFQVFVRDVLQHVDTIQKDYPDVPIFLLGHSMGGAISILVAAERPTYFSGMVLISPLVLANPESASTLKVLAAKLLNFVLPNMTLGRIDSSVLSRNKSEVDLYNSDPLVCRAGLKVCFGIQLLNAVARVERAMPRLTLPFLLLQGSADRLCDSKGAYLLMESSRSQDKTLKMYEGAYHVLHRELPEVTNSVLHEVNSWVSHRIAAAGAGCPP
Procedure: Compounds are tested to assess their MAGL and other serine hydrolase activity using the following in vitro and in vivo assays.
Preparation of Mouse Brain Proteomes from Inhibitor Treated Mice.
Inhibitors were administered to wild-type C57Bl/6J by oral gavage in a vehicle of polyethylene glycol. Each animal was sacrificed 4 h following administration and brain proteomes were prepared and analyzed according to previously established methods (See Niphakis, M. J., et al. (2011) ACS Chem. Neurosci. and Long, J. Z., et al. Nat. Chem. Biol. 5:37-44)

[3] = target: T2, MAGL; experiment: In vitro competitive activity-based protein profiling (mouse), MAGL gel band; type: biochemical; details: for IC50: mouse; for inhibition at 1 µM: read-out: MAGL % inh. 1 μM
In short: as §1

SMILES	IC50 [1] [µM]	inhibition at 1 µM [1] [%]	inhibition at 5 mg/kg [2] [%]	IC50 [3] [nM]	inhibition at 1 µM [3] [%]
CC(=O)Nc1ccn(C(=O)N2CCC3(CCCN3Cc3ccc(C(F)(F)F)c(N4CCCC4)c3)CC2)n1 [Example 106, N-(1-(1-(3-(pyrrolidin-1-yl)-4-(trifluoromethyl)benzyl)-1,8-diazaspiro[4.5]decane-8-carbonyl)-1H-pyrazol-3-yl)acetamide]	1 to 10	0 to 25	25 to 50	≤ 100	≥ 75
CC(=O)Nc1ccn(C(=O)N2CCN(Cc3ccc(C(F)(F)F)cc3N3CCC4(CC3)CCN(S(C)(=O)=O)C4)CC2)n1 [Example 43, N-(1-(4-(2-(2-(methylsulfonyl)-2,8-diazaspiro[4.5]decan-8-yl)-4-(trifluoromethyl)benzyl)piperazine-1-carbonyl)-1H-pyrazol-3-yl)acetamide]	1 to 10	0 to 25	0 to 25	≤ 100	≥ 75
CC(=O)Nc1ccn(C(=O)N2CCC3(CCCN3Cc3ccc(N4CCOCC4)c(C(F)(F)F)c3)CC2)n1 [Example 101, N-(1-(1-(4-morpholino-3-(trifluoromethyl)benzyl)-1,8-diazaspiro[4.5]decane-8-carbonyl)-1H-pyrazol-3-yl)acetamide]	1 to 10	0 to 25	25 to 50	≤ 100	≥ 75
CC(=O)Nc1ccn(C(=O)N2CCN(Cc3ccc(Cl)cc3N3CCC4(C3)CN(S(C)(=O)=O)C4)CC2)n1 [Example 55, N-(1-(4-(4-chloro-2-(2-(methylsulfonyl)-2,6-diazaspiro[3.4]octan-6-yl)benzyl)piperazine-1-carbonyl)-1H-pyrazol-3-yl)acetamide]	1 to 10	0 to 25	0 to 25	≤ 100	≥ 75
CC(=O)Nc1ccn(C(=O)N2CCC3(CCCN3Cc3ccc(C(F)(F)F)c(C)c3)CC2)n1 [Example 93, N-(1-(1-(3-methyl-4-(trifluoromethyl)benzyl)-1,8-diazaspiro[4.5]decane-8-carbonyl)-1H-pyrazol-3-yl)acetamide]	1 to 10	0 to 25	50 to 75	≤ 100	≥ 75
CC(=O)Nc1ccn(C(=O)N2CCN(Cc3ccc(C(F)(F)F)cc3N3CCC(F)CC3)CC2)n1 [Example 4, N-(1-(4-(2-(4-fluoropiperidin-1-yl)-4-(trifluoromethyl)benzyl)piperazine-1-carbonyl)-1H-pyrazol-3-yl)acetamide]	1 to 10	0 to 25	≥ 75	≤ 100	≥ 75
CC(=O)Nc1ccn(C(=O)N2CCC3(CCCN3Cc3ccc(N4CCCC4)c(C(F)(F)F)c3)CC2)n1 [Example 102, N-(1-(1-(4-(pyrrolidin-1-yl)-3-(trifluoromethyl)benzyl)-1,8-diazaspiro[4.5]decane-8-carbonyl)-1H-pyrazol-3-yl)acetamide]	1 to 10	0 to 25	0 to 25	≤ 100	≥ 75
Cc1ccc(CN2CCN(C(=O)n3ccc(NS(C)(=O)=O)n3)CC2)c(N2CC3CCC(C2)O3)c1 [Example 146, N-(1-(4-(2-(8-oxa-3-azabicyclo[3.2.1]octan-3-yl)-4-methylbenzyl)piperazine-1-carbonyl)-1H-pyrazol-3-yl) methanesulfonamide]	1 to 10	0 to 25	25 to 50	≤ 100	≥ 75
CS(=O)(=O)Nc1ccn(C(=O)N2CCN(Cc3ccc(-c4ccccc4)cc3OCc3ccccc3)CC2)n1 [Example 183, N-(1-(4-((3-(benzyloxy)-[1,1′-biphenyl]-4-yl)methyl)piperine-1-carbonyl)-1H-pyrazol-3-yl) methanesulfonamide]	–	0 to 25	–	–	≥ 75
